These results are taken from BindingDB's records for doi:10.1016/j.bmcl.2009.04.040 (The University of Texas Southwestern Medical Center At …, 2009).

This experiment has as its target Proto-oncogene Wnt-3 (Homo sapiens, UniProt P56703). Description: Inhibition of Wnt3 expressed in mouse L-cells assessed as inhibition of Wnt/catanin signaling pathway by luciferase reporter gene assay.

pEC50: −log10 of the molar value. Bounds are passed on as bounds.

Proto-oncogene Wnt-3, sequence (P56703 whole entry): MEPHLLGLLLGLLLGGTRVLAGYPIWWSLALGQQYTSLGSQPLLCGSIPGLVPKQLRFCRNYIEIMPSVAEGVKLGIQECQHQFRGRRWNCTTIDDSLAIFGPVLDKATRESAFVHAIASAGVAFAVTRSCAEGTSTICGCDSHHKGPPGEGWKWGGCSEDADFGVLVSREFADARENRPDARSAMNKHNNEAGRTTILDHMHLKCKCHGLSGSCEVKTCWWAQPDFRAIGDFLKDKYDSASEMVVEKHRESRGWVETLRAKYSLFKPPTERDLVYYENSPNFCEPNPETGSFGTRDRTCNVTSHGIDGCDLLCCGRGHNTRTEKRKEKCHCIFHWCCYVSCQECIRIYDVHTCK

Turning to `O=C(Nc1ccc(-n2c(O)c3c(c2O)[C@H]2C=C[C@@H]3C2)cc1)Nc1cccc2cccnc12` [1-[4-((1R,2S,6R,7S)-3,5-Dioxo-4-aza-tricyclo[5.2.1.0*2,6*]dec-8-en-4-yl)-phenyl]-3-quinolin-8-yl-urea], the pEC50 was below 4.60.
Consider `O=C(Nc1cccc2cccnc12)c1ccc(-n2c(O)c3c(c2O)[C@H]2C=C[C@@H]3C2)cc1Cl` [2-Chloro-4-((1R,2S,6R,7S)-3,5-dioxo-4-aza-tricyclo[5.2.1.0*2,6*]dec-8-en-4-yl)-N-quinolin-8-yl-benzamide], for which the pEC50 was 6.00.
For `O=C(Nc1cccc2cccnc12)c1ccc(-n2c(O)c3c(c2O)[C@H]2C=C[C@@H]3C2)c(Cl)c1` [3-Chloro-4-((1R,2S,6R,7S)-3,5-dioxo-4-aza-tricyclo[5.2.1.0*2,6*]dec-8-en-4-yl)-N-quinolin-8-yl-benzamide], the pEC50 was below 4.60.
In the case of `O=C(Nc1ccccc1)c1ccc(-n2c(O)c3c(c2O)[C@H]2C=C[C@H]3C2)cc1` [4-((1R,2S,6R,7R)-3,5-Dioxo-4-aza-tricyclo[5.2.1.0*2,6*]dec-8-en-4-yl)-N-phenyl-benzamide], the pEC50 is below 4.60.
On to `COc1cc(-n2c(O)c3c(c2O)[C@H]2C=C[C@@H]3C2)ccc1C(=O)Nc1cccc2cccnc12` [4-((1R,2S,6R,7S)-3,5-Dioxo-4-aza-tricyclo[5.2.1.0*2,6*]dec-8-en-4-yl)-2-methoxy-N-quinolin-8-yl-benzamide], for which the pEC50 was below 4.60.
In the case of `Cc1cc(-n2c(O)c3c(c2O)[C@H]2C=C[C@@H]3C2)ccc1C(=O)Nc1cccc2cccnc12` [4-((1R,2S,6R,7S)-3,5-Dioxo-4-aza-tricyclo[5.2.1.0*2,6*]dec-8-en-4-yl)-2-methyl-N-quinolin-8-yl-benzamide], the pEC50 was 5.70.
As for `COc1cc(C(=O)Nc2cccc3cccnc23)ccc1-n1c(O)c2c(c1O)[C@H]1C=C[C@@H]2C1` [4-((1R,2S,6R,7S)-3,5-Dioxo-4-aza-tricyclo[5.2.1.0*2,6*]dec-8-en-4-yl)-3-methoxy-N-quinolin-8-yl-benzamide], the pEC50 is below 4.60.
Consider `Cc1cc(C(=O)Nc2cccc3cccnc23)ccc1-n1c(O)c2c(c1O)[C@H]1C=C[C@@H]2C1` [4-((1R,2S,6R,7S)-3,5-Dioxo-4-aza-tricyclo[5.2.1.0*2,6*]dec-8-en-4-yl)-3-methyl-N-quinolin-8-yl-benzamide], for which the pEC50 is below 4.60.
With `O=C(Nc1cccc(C(F)(F)F)c1)c1ccc(-n2c(O)c3c(c2O)[C@H]2C=C[C@@H]3C2)cc1` [4-((1R,2S,6R,7S)-3,5-Dioxo-4-aza-tricyclo[5.2.1.0*2,6*]dec-8-en-4-yl)--(3-trifluoromethyl-phenyl)-benzamide], the pEC50 is 4.70.
In the case of `O=C(Nc1ccccc1F)c1ccc(-n2c(O)c3c(c2O)[C@H]2C=C[C@@H]3C2)cc1` [4-((1R,2S,6R,7S)-3,5-Dioxo-4-aza-tricyclo[5.2.1.0*2,6*]dec-8-en-4-yl)-N-(2-fluoro-phenyl)-benzamide], the pEC50 was below 4.60.
`COc1ccccc1NC(=O)c1ccc(-n2c(O)c3c(c2O)[C@H]2C=C[C@@H]3C2)cc1` [4-((1R,2S,6R,7S)-3,5-Dioxo-4-aza-tricyclo[5.2.1.0*2,6*]dec-8-en-4-yl)-N-(2-methoxy-phenyl)-benzamide]: the pEC50 was 6.00.
Consider `O=C(Nc1ccccc1C(F)(F)F)c1ccc(-n2c(O)c3c(c2O)[C@H]2C=C[C@@H]3C2)cc1` [4-((1R,2S,6R,7S)-3,5-Dioxo-4-aza-tricyclo[5.2.1.0*2,6*]dec-8-en-4-yl)-N-(2-trifluoromethyl-phenyl)-benzamide], for which the pEC50 is below 4.60.
The value for `O=C(Nc1cccc(F)c1)c1ccc(-n2c(O)c3c(c2O)[C@H]2C=C[C@@H]3C2)cc1` [4-((1R,2S,6R,7S)-3,5-Dioxo-4-aza-tricyclo[5.2.1.0*2,6*]dec-8-en-4-yl)-N-(3-fluoro-phenyl)-benzamide] was below 4.60.
For `O=C(Nc1ccc(F)cc1)c1ccc(-n2c(O)c3c(c2O)[C@H]2C=C[C@@H]3C2)cc1` [4-((1R,2S,6R,7S)-3,5-Dioxo-4-aza-tricyclo[5.2.1.0*2,6*]dec-8-en-4-yl)-N-(4-fluoro-phenyl)-benzamide], the pEC50 is 5.40.
The value for `O=C(Nc1ccc(C(F)(F)F)cc1)c1ccc(-n2c(O)c3c(c2O)[C@H]2C=C[C@@H]3C2)cc1` [4-((1R,2S,6R,7S)-3,5-Dioxo-4-aza-tricyclo[5.2.1.0*2,6*]dec-8-en-4-yl)-N-(4-trifluoromethyl-phenyl)-benzamide] was below 4.60; that for `O=C(NC1CCCc2cccnc21)c1ccc(-n2c(O)c3c(c2O)[C@H]2C=C[C@@H]3C2)cc1` (stereo partly drawn) [4-((1R,2S,6R,7S)-3,5-Dioxo-4-aza-tricyclo[5.2.1.0*2,6*]dec-8-en-4-yl)-N-(5,6,7,8-tetrahydro-quinolin-8-yl)-benzamide] was 5.00; that for `Cc1ccc2cccnc2c1NC(=O)c1ccc(-n2c(O)c3c(c2O)[C@H]2C=C[C@@H]3C2)cc1` [4-((1R,2S,6R,7S)-3,5-Dioxo-4-aza-tricyclo[5.2.1.0*2,6*]dec-8-en-4-yl)-N-(7-methyl-quinolin-8-yl)-benzamide] was 6.10.
The value for `CN(C(=O)c1ccc(-n2c(O)c3c(c2O)[C@H]2C=C[C@@H]3C2)cc1)c1cccc2cccnc12` [4-((1R,2S,6R,7S)-3,5-Dioxo-4-aza-tricyclo[5.2.1.0*2,6*]dec-8-en-4-yl)-N-methyl-N-quinolin-8-yl-benzamide] was below 4.60; that for `O=C(NCc1ccccn1)c1ccc(-n2c(O)c3c(c2O)[C@H]2C=C[C@@H]3C2)cc1` [4-((1R,2S,6R,7S)-3,5-Dioxo-4-aza-tricyclo[5.2.1.0*2,6*]dec-8-en-4-yl)-N-pyridin-2-ylmethyl-benzamide] was below 4.60; that for `O=C(NCc1cccnc1)c1ccc(-n2c(O)c3c(c2O)[C@H]2C=C[C@@H]3C2)cc1` [4-((1R,2S,6R,7S)-3,5-Dioxo-4-aza-tricyclo[5.2.1.0*2,6*]dec-8-en-4-yl)-N-pyridin-3-ylmethyl-benzamide] was below 4.60.
Take `O=C(NCc1ccncc1)c1ccc(-n2c(O)c3c(c2O)[C@H]2C=C[C@@H]3C2)cc1` [4-((1R,2S,6R,7S)-3,5-Dioxo-4-aza-tricyclo[5.2.1.0*2,6*]dec-8-en-4-yl)-N-pyridin-4-ylmethyl-benzamide]: the pEC50 was 5.00.
The value for `O=C1[C@@H]2[C@H](C(=O)N1[C@H]1CC[C@H](C(=O)Nc3cccc4cccnc34)CC1)[C@@H]1C=C[C@H]2C1` [4-((1R,2S,6R,7S)-3,5-Dioxo-4-aza-tricyclo[5.2.1.0*2,6*]dec-8-en-4-yl)-cyclohexanecarboxylic acid quinolin-8-ylamide] was 6.40; that for `Cc1ccnc2c(NC(=O)[C@H]3CC[C@H](N4C(=O)[C@@H]5[C@H](C4=O)[C@@H]4C=C[C@H]5C4)CC3)cccc12` [4-((1R,2S,6R,7S)-3,5-Dioxo-4-aza-tricyclo[5.2.1.0*2,6*]dec-8-en-4-yl)-cyclohexanecarboxylic acid(4-methyl-quinolin-8-yl)-amide] was 6.00.
Take `Cc1ccc2cccnc2c1NC(=O)[C@H]1CC[C@H](N2C(=O)[C@@H]3[C@H](C2=O)[C@@H]2C=C[C@H]3C2)CC1` [4-((1R,2S,6R,7S)-3,5-Dioxo-4-aza-tricyclo[5.2.1.0*2,6*]dec-8-en-4-yl)-cyclohexanecarboxylic acid(7-methyl-quinolin-8-yl)-amide]: the pEC50 was 6.00.
`O=C(Nc1cccc2cccnc12)N1CCC(N2C(=O)[C@@H]3[C@H](C2=O)[C@@H]2C=C[C@H]3C2)CC1` [4-((1R,2S,6R,7S)-3,5-Dioxo-4-aza-tricyclo[5.2.1.0*2,6*]dec-8-en-4-yl)-piperidine-1-carboxylic acid quinolin-8-ylamide]: the pEC50 was 5.00.
On to `O=C1[C@@H]2[C@H](C(=O)N1C[C@H]1CC[C@H](C(=O)Nc3cccc4cccnc34)CC1)[C@@H]1C=C[C@H]2C1` [4-((1R,2S,6R,7S)-3,5-Dioxo-4-aza-tricyclo[5.2.1.0*2,6*]dec-8-en-4-ylmethyl)-cyclohexanecarboxylic acid quinolin-8-ylamide], for which the pEC50 is below 4.60.
For `Cc1ccnc2c(NC(=O)[C@H]3CC[C@H](CN4C(=O)[C@@H]5[C@H](C4=O)[C@@H]4C=C[C@H]5C4)CC3)cccc12` [4-((1R,2S,6R,7S)-3,5-Dioxo-4-aza-tricyclo[5.2.1.0*2,6*]dec-8-en-4-ylmethyl)-cyclohexanecarboxylic acid(4-methyl-quinolin-8-yl)-amide], the pEC50 is below 4.60.
In the case of `Cc1ccc2cccnc2c1NC(=O)[C@H]1CC[C@H](CN2C(=O)[C@@H]3[C@H](C2=O)[C@@H]2C=C[C@H]3C2)CC1` [4-((1R,2S,6R,7S)-3,5-Dioxo-4-aza-tricyclo[5.2.1.0*2,6*]dec-8-en-4-ylmethyl)-cyclohexanecarboxylic acid(7-methyl-quinolin-8-yl)-amide] it was 5.00.
In the case of `O=C(Nc1cccc(F)c1F)c1ccc(-n2c(O)c3c(c2O)[C@H]2C=C[C@@H]3C2)cc1` [N-(2,3-Difluoro-phenyl)-4-((1R,2S,6R,7S)-dioxo-4-aza-tricyclo[5.2.1.0*2,6*]dec-8-en-4-yl)-benzamide] it was below 4.60; in that of `O=C(Nc1ccc(Br)cc1Br)c1ccc(-n2c(O)c3c(c2O)[C@H]2C=C[C@@H]3C2)cc1` [N-(2,4-Dibromo-phenyl)-4-((1R,2S,6R,7S)-dioxo-4-aza-tricyclo[5.2.1.0*2,6*]dec-8-en-4-yl)-benzamide], below 4.60; in that of `O=C(Nc1ccc(Cl)cc1Cl)c1ccc(-n2c(O)c3c(c2O)[C@H]2C=C[C@@H]3C2)cc1` [N-(2,4-Dichloro-phenyl)-4-((1R,2S,6R,7S)-dioxo-4-aza-tricyclo[5.2.1.0*2,6*]dec-8-en-4-yl)-benzamide], 5.00.
For `O=C(Nc1ccc(F)cc1F)c1ccc(-n2c(O)c3c(c2O)[C@H]2C=C[C@@H]3C2)cc1` [N-(2,4-Difluoro-phenyl)-4-((1R,2S,6R,7S)-dioxo-4-aza-tricyclo[5.2.1.0*2,6*]dec-8-en-4-yl)-benzamide], the negative-log EC50 (pEC50) is 5.05.
For `O=C(Nc1cc(F)ccc1F)c1ccc(-n2c(O)c3c(c2O)[C@H]2C=C[C@@H]3C2)cc1` [N-(2,5-Difluoro-phenyl)-4-((1R,2S,6R,7S)-dioxo-4-aza-tricyclo[5.2.1.0*2,6*]dec-8-en-4-yl)-benzamide], the pEC50 is below 4.60.
`O=C(Nc1c(F)cccc1F)c1ccc(-n2c(O)c3c(c2O)[C@H]2C=C[C@@H]3C2)cc1` [N-(2,6-Difluoro-phenyl)-4-((1R,2S,6R,7S)-dioxo-4-aza-tricyclo[5.2.1.0*2,6*]dec-8-en-4-yl)-benzamide]: the pEC50 is below 4.60.
